Test results taken from ChEMBL document CHEMBL4689842, “EUbOPEN Chemogenomics Library wave 1” (2021).

Test system: Fibroblast
Assay: Incucyte cell viability with human fibroblast; also: filed as whole numbers so only -1 and 0 and 1 occur
Format: toxicity, cell-based
Settings: 10 µM, compound concentration 10 uM
[1] = 0 h, replicate number 1, timepoint 0 hours
[2] = 6 h, replicate number 1, timepoint 6 hours
[3] = 12 h, replicate number 1, timepoint 12 hours
[4] = 18 h, replicate number 1, timepoint 18 hours
[5] = 18 h, replicate number 2, timepoint 18 hours
[6] = 24 h, replicate number 1, timepoint 24 hours

Compound | Growth Rate [1] | Growth Rate [2] | Growth Rate [3] | Growth Rate (12 h, replicate number 2, timepoint 12 hours) | Growth Rate [4] | Growth Rate [5] | Growth Rate [6] | Growth Rate (24 h, replicate number 2, timepoint 24 hours)
Cn1nc(C(F)(F)F)cc1-c1cnc(N2CCc3cc(S(=O)(=O)Nc4c(F)cc(Cl)cc4F)cc(N4CCCC4=O)c32)nc1 [TP-020] | 0 | 1 | 0 | 1 | 1 | 0 | 0 | –
CCCS(=O)(=O)c1nc(NC2CC2)cc(-c2ccc3c(ccn3C3CC(C)(C)NC(C)(C)C3)c2)n1 | 0 | 0 | 0 | – | 0 | 1 | 0 | –
CCc1cccc(CC)c1NC(=O)c1nn(C)c2c1CCc1cnc(Nc3ccc(C(=O)NC4CCN(C)CC4)cc3OC(F)(F)F)nc1-2 | 0 | 1 | 0 | – | 0 | – | 0 | 1
